How the values were obtained:
Assay type in all cases: nucleic-acid assay
Design in all cases: scale not given: the % may be the effect or the level left
Settings in all cases: Escherichia coli
Nucleic Acid [1] = assay: DNA photocleavage activity assessed as pBluescript form II levels at 1 uM by plasmid DNA relaxation assay
Nucleic Acid [2] = assay: DNA photocleavage activity assessed as pBluescript form II levels at 20 uM by plasmid DNA relaxation assay
Nucleic Acid [3] = assay: DNA photocleavage activity assessed as pBluescript form II levels at 10 uM by plasmid DNA relaxation assay
Nucleic Acid [4] = assay: DNA photocleavage activity assessed as pBluescript form II levels at 5 uM by plasmid DNA relaxation assay

Activity (Nucleic Acid [1]): 12% | Activity (Nucleic Acid [2]): 21% | Activity (Nucleic Acid [3]): 18% | Activity (Nucleic Acid [4]): 16%
SMILES: O=c1c2ccccc2[se]n1-c1ccc(-c2c3nc(c(-c4ccccc4)c4ccc([nH]4)c(-c4ccccc4)c4nc(c(-c5ccccc5)c5ccc2[nH]5)C=C4)C=C3)cc1

Source: ChEMBL document CHEMBL1140641, “Novel ebselen-porphyrin conjugates: synthesis and nucleic acid interaction study” (Bioorg Med Chem Lett, 2007)
